According to patent US11572590B2, “Methods for evaluating tumor cell spheroids using 3D microfluidic cell culture device” (Dana-Farber Cancer Institute, Inc., priority 2017, dated 2023):
Like-named read-outs stand apart in the source and are kept apart here.

Tests used:
Test in all cases: SelectScreen Kinase Profiling, single point inhibition and IC50 for off-target kinases
Format in all cases: biochemical
off-target kinases [1] = target: off-target kinases (Homo sapiens, UniProt P36888); details: FLT3, ATP Km app, ZLYTE
off-target kinases [2] = target: off-target kinases (Homo sapiens, UniProt P22607, K650E); details: FGFR3 K650E (mutant), ZLYTE, ATP Km app
off-target kinases [3] = target: T1, off-target kinases (Homo sapiens, UniProt P43403); details: ZAP70, ZLYTE, ATP Km app
T1 sequence (P43403 1-619): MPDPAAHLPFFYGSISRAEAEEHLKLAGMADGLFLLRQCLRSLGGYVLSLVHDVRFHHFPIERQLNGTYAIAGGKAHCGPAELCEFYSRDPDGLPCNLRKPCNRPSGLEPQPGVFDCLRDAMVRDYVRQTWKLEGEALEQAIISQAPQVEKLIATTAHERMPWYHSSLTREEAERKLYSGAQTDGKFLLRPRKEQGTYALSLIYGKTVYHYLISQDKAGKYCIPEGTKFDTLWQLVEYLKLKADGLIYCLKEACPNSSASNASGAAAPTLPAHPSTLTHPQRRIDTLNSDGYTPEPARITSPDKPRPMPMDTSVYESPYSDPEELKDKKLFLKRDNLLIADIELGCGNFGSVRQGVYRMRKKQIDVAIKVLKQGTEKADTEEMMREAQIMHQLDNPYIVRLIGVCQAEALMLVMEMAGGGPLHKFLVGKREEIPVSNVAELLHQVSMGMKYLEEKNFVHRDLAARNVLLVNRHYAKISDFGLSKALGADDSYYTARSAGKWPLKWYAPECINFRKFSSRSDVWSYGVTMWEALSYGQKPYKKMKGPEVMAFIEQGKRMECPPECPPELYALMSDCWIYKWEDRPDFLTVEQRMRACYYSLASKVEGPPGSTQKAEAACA

off-target kinases [4] = target: off-target kinases (Homo sapiens, UniProt P00519, Q252H); details: ABL1 Q252H, LanthaScreen Binding
off-target kinases [5] = target: off-target kinases (Homo sapiens, UniProt P49760); details: CLK2, ZLYTE, ATP Km app
off-target kinases [6] = target: T2, off-target kinases (Homo sapiens, UniProt Q9NWZ3); details: IRAK4, ZLYTE, ATP Km app
T2 sequence (Q9NWZ3 1-460): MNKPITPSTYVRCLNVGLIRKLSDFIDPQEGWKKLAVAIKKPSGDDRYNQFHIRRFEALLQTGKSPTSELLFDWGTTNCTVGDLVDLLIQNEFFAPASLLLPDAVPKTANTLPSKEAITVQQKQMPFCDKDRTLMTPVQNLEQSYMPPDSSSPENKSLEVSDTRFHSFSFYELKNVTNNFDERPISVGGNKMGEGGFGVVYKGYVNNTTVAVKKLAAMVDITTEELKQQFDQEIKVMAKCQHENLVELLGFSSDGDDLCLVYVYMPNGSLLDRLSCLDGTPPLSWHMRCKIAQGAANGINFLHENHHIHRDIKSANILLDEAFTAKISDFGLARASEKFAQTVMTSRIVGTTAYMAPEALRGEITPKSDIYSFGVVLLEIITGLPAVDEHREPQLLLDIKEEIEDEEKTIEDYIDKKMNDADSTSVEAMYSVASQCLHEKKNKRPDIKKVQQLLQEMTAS

Chain of off-target kinases (Homo sapiens, UniProt P36888) (P36888 27-993): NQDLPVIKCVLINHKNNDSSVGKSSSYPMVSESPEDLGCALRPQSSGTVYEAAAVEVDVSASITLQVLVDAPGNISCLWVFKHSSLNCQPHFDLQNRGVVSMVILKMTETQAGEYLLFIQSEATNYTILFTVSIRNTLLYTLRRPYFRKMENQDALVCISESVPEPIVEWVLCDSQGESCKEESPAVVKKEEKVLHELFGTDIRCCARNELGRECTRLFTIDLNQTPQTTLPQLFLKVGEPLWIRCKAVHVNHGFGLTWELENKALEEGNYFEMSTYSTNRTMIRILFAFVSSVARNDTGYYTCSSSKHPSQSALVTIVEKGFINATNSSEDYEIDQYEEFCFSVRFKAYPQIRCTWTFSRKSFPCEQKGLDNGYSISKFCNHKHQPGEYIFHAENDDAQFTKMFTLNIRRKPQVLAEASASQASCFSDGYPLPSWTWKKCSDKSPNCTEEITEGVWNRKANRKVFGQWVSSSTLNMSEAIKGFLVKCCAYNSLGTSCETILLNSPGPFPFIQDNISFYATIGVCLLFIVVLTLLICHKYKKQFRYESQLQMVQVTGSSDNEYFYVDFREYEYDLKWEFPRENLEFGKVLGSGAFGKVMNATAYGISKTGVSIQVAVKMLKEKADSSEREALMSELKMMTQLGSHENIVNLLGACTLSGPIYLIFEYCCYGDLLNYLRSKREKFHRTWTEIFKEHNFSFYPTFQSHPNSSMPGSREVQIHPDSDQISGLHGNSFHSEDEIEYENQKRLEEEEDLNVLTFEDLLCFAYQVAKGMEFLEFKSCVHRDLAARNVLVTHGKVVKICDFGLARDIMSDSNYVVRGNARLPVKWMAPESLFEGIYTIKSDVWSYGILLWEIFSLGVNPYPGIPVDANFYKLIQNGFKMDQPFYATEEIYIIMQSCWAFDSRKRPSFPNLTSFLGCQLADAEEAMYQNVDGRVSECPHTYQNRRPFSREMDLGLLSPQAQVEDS
Chain of off-target kinases (Homo sapiens, UniProt P22607, K650E) (P22607 23-806 K650E): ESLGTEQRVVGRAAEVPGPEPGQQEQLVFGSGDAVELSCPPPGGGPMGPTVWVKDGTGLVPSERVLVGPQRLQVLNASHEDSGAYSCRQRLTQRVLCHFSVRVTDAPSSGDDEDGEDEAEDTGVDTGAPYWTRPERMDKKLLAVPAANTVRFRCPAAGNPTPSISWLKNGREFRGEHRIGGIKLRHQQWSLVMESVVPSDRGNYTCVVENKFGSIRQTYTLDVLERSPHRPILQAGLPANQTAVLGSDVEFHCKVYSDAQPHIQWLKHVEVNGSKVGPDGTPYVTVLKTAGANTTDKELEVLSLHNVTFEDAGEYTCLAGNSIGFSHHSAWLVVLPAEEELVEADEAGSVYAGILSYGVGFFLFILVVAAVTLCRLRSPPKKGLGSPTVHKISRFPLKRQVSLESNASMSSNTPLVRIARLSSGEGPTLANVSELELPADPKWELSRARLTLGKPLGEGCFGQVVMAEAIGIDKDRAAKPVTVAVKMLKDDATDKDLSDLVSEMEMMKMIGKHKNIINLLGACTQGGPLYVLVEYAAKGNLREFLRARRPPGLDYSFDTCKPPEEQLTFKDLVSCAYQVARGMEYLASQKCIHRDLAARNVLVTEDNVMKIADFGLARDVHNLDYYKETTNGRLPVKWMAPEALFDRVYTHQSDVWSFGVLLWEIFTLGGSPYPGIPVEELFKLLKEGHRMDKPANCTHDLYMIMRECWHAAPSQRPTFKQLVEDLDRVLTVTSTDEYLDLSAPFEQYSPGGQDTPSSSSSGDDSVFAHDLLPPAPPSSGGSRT
Chain of off-target kinases (Homo sapiens, UniProt P49760) (P49760 whole entry): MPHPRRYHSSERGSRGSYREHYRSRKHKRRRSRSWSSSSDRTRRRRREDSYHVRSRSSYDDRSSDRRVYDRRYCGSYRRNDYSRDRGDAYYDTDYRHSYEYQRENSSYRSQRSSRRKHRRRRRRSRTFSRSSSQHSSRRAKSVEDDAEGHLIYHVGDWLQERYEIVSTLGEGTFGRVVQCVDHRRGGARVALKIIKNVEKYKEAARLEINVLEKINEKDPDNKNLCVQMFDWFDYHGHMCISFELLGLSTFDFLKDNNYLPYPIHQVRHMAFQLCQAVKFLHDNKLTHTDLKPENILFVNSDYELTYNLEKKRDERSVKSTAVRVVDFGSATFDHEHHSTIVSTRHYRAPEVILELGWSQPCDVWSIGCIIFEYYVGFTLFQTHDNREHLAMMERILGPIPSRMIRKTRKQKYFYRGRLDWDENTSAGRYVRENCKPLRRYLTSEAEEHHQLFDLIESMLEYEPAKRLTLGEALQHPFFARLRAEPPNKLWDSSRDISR

N#Cc1cc(-c2ncnc(Nc3ccc(N4CCN(C5COC5)CC4)cc3)n2)ccc1OC1CCOCC1 [Compound 1, 5-(4-((4-(4-(oxetan-3-yl)piperazin-1-yl)phenyl)amino)-1,3,5-triazin-2-yl)-2-((tetrahydro-2H-pyran-4-yl)oxy)benzonitrile]
inhibition (off-target kinases [1]; read-out: % Inhibition 1): 42% | inhibition (off-target kinases [1]; read-out: % Inhibition 2): 49% | inhibition (off-target kinases [1]; read-out: % Inhibition Avg): 45% | inhibition (off-target kinases [2]; read-out: % Inhibition 1): 11% | inhibition (off-target kinases [2]; read-out: % Inhibition 2): 6% | inhibition (off-target kinases [2]; read-out: % Inhibition Avg): 8% | inhibition (off-target kinases [3]; read-out: % Inhibition 1): 4% | inhibition (off-target kinases [3]; read-out: % Inhibition 2): 4% | inhibition (off-target kinases [3]; read-out: % Inhibition Avg): 4% | inhibition (off-target kinases [4]; read-out: % Inhibition 1): 52% | inhibition (off-target kinases [4]; read-out: % Inhibition 2): 41% | inhibition (off-target kinases [4]; read-out: % Inhibition Avg): 46% | inhibition (off-target kinases [5]; read-out: % Inhibition 1): 5% | inhibition (off-target kinases [5]; read-out: % Inhibition 2): 9% | inhibition (off-target kinases [5]; read-out: % Inhibition Avg): 7% | inhibition (off-target kinases [6]; read-out: % Inhibition 1): 5% | inhibition (off-target kinases [6]; read-out: % Inhibition 2): 8% | inhibition (off-target kinases [6]; read-out: % Inhibition Avg): 6%
